Test system: MCF-7 breast CSCs
Test: Inhibition of mammosphere-forming activity of MCF-7 breast CSCs
Type: cell-based, human
Conditions: treated for 5 days in mammosphere media, read-out: IC-50 for blocking CSC propagation (mammosphere-forming activity)
From the text: The black bars show 2,4-dichlorobenzyl-TPP; the inclined bars show 1-naphthylmethyl-TPP; the dotted bars show 3-methylbenzyl-TPP; the unshaded bars show 2-chlorobenzyl-TPP; and the horizontal lined bars show 2-butene-1,4-bis-TPP. […] Data are represented as mean+/−SEM.

## C(=CC[P+](c1ccccc1)(c1ccccc1)c1ccccc1)C[P+](c1ccccc1)(c1ccccc1)c1ccccc1 [2-butene-1,4-bis-TPP]
  IC50: < 0.5 µM
